Tests used:
[1] = test system: Puccinia recondita f. sp. tritici (the causal agent of wheat leaf rust); experiment: Test B: preventive spray on wheat seedlings, disease rating (100 = 100% control; * 50 ppm, ** 10 ppm, *** 250 ppm); type: in vivo; conditions: wheat seedlings, 100 = 100% disease control
Source text: (§1) General protocol for preparing test suspensions for Tests A-E: the test compounds were first dissolved in acetone in an amount equal to 3% of the final volume and then suspended at the desired concentration (in ppm) in acetone and purified water (50/50 mix by volume) containing 250 ppm of the surfactant […] (polyhydric alcohol esters). The resulting test suspensions were then used in Tests A-E.
(§2) The test solution was sprayed to the point of run-off on wheat seedlings. The following day the seedlings were inoculated with a spore suspension of Puccinia recondita f. sp. tritici (the causal agent of wheat leaf rust) and incubated in a saturated atmosphere at 20° C. for 24 h, and then moved to a growth chamber at 20° C. for 6 days, after which time disease ratings were made.
(§3) Results for Tests A-E are given in Table A. In the Table, a rating of 100 indicates 100% disease control and a rating of 0 indicates no disease control (relative to the controls). An asterisk “*” or a double asterisk “**” or a triple asterisk “***” next to the rating value indicates a 50 ppm, 10 ppm and 250 ppm test suspension was used, respectively. A dash (-) indicates the compound was not tested.

[2] = test system: Phakopsora pachyrhizi (the causal agent of Asian soybean rust); experiment: Test A: preventive spray on soybean seedlings, visual disease rating (100 = 100% control; * 50 ppm, ** 10 ppm, *** 250 ppm); type: in vivo; conditions: soybean seedlings, 100 = 100% disease control
Source text: as §1
as §2, with “soybean” for “wheat”, “Phakopsora pachyrhizi” for “Puccinia recondita f. sp. tritici”, “Asian soybean” for “wheat leaf”, “22°” for “20°”, “8” for “6”, “time visual” for “time”
as §3

Compound | Test B disease control rating ([1]; 10 ppm test suspension) [%] | Test A disease control rating ([2]; 10 ppm test suspension) [%] | Test B disease control rating ([1]; 50 ppm test suspension) [%] | Test A disease control rating ([2]; 50 ppm test suspension) [%]
CCO/C(=C\Oc1ccc(Cn2cc(C(=O)OC)c3ccccc32)cc1)C(F)(F)F [compound 91] | 0 | 0 | – | –
CCO/C(=C\Oc1ccc(CN2OCC(C)(C)C2=O)cc1)C(F)(F)F [compound 92] | 0 | 0 | – | –
O=C(O)c1cnn(Cc2ccc(OCC3(C(F)(F)F)OCCO3)cc2)c1 [compound 93] | 0 | 96 | – | –
CCCOC(=O)c1ccc(O/C=C(\OCC)C(F)(F)F)cc1 [compound 94] | 0 | 0 | – | –
CCOC(=O)c1ccc(O/C=C(\OCC)C(F)(F)F)cc1 [compound 95] | 0 | 0 | – | –
CCOC(=O)C=CCOc1ccc(O/C=C(\OCC)C(F)(F)F)cc1 [compound 96] | 0 | 13 | – | –
CCOC(=O)C=CCOc1ccc(OCC(O)(O)C(F)(F)F)cc1 [compound 97] | – | – | 0 | 94
CCO/C(=C\Oc1ccc(C(N)=O)cc1)C(F)(F)F [compound 99] | 80 | 0 | – | –
CCO/C(=C\Oc1ccc(C(=O)NC2CC2)cc1)C(F)(F)F [compound 100] | 0 | 0 | – | –
CCO/C(=C\Oc1ccc(C(=O)NC(C)C)cc1)C(F)(F)F [compound 101] | 0 | 0 | – | –
C#CCNC(=O)c1ccc(O/C=C(\OCC)C(F)(F)F)cc1 [compound 102] | 0 | 0 | – | –
C=CCNC(=O)c1ccc(O/C=C(\OCC)C(F)(F)F)cc1 [compound 103] | 0 | 0 | – | –
CCCNC(=O)c1ccc(O/C=C(\OCC)C(F)(F)F)cc1 [compound 104] | 80 | 0 | – | –
CCO/C(=C\Oc1ccc(C(=O)NC)cc1)C(F)(F)F [compound 105] | 68 | 0 | – | –
CCO/C(=C\Oc1ccc(Cn2cc(C(=O)NCC(F)(F)F)cn2)cc1)C(F)(F)F [compound 106] | 0 | 0 | – | –
CCO/C(=C\Oc1ccc(Cn2cc(C(=O)NCC#N)cn2)cc1)C(F)(F)F [compound 107] | 0 | 0 | – | –
CCO/C(=C\Oc1ccc(CN)cc1)C(F)(F)F [compound 110] | – | – | 0 | 79
CCOC(=O)NCc1ccc(O/C=C(\OCC)C(F)(F)F)cc1 [compound 111] | 0 | 0 | – | –
CC(C)COC(=O)NCc1ccc(OCC2(C(F)(F)F)OCCO2)cc1 [compound 112] | 0 | 0 | – | –

Compound | Test B disease control rating ([1]; 10 ppm test suspension) [%] | Test A disease control rating ([2]; 10 ppm test suspension) [%] | Test B disease control rating ([1]; 50 ppm test suspension) [%] | Test A disease control rating ([2]; 50 ppm test suspension) [%]
CCO/C(=C\Oc1ccc(CNC(=O)CC(F)(F)F)cc1)C(F)(F)F [compound 113] | 0 | 0 | – | –
CCO/C(=C\Oc1ccc(CNC(=O)C(C)OC)cc1)C(F)(F)F (stereo not shown) [compound 114] | – | – | 0 | 44
CCO/C(=C\Oc1ccc(Cn2cc(C(=O)O)cn2)cc1)C(F)(F)F [compound 116] | 0 | 100 | – | –
CCO/C(=C\Oc1ccc(Cn2cc(C(=O)NCC3CC3)cn2)cc1)C(F)(F)F [compound 117] | 0 | 23 | – | –
CCOC(=O)c1cnn(Cc2ccc(O/C=C(\OCC)C(F)(F)F)cc2)n1 [compound 119] | 0 | 97 | – | –
CCOC(=O)c1cn(Cc2ccc(O/C=C(\OCC)C(F)(F)F)cc2)nn1 [compound 121] | 0 | 100 | – | –
CCO/C(=C\Oc1ccc(Cn2ncnc2C(=O)OC)cc1)C(F)(F)F [compound 122] | 0 | 0 | – | –
CCO/C(=C\Oc1ccc(Cn2cnc(C(=O)OC)n2)cc1)C(F)(F)F [compound 123] | 0 | 98 | – | –
CCCCOC(=O)c1cnn(Cc2ccc(OCC3(C(F)(F)F)OCCO3)cc2)c1 [compound 125] | 0 | 100 | – | –
CCO/C(=C\Oc1ccc(Cc2nc(C(=O)NCC(F)(F)F)cs2)cc1)C(F)(F)F [compound 129] | 0 | 100 | – | –
CCO/C(=C\Oc1ccc(Cc2nc(C(=O)NCC3CC3)cs2)cc1)C(F)(F)F [compound 130] | 0 | 100 | – | –
CCOC(=O)c1cnn(CCc2ccc(OCC(O)(O)C(F)(F)F)cc2)c1 [compound 131] | – | – | 86 | 99
CCOC(=O)c1cnn(CCc2ccc(OCC3(C(F)(F)F)OCCO3)cc2)c1 [compound 133] | 0 | 79 | – | –
O=C(OCC(F)(F)F)c1cnn(Cc2ccc(OCC3(C(F)(F)F)OCCO3)cc2)c1 [compound 134] | 32 | 89 | – | –
CCOC(=O)c1csc(Cc2ccc(OCC3(C(F)(F)F)OCCO3)cc2)n1 [compound 137] | 0 | 79 | – | –
CCO/C(=C\Oc1ccc(Cn2cc(C(=O)OC(C)C)cn2)cc1)C(F)(F)F [compound 139] | 0 | 100 | – | –
CCOC(=O)c1cnn(Cc2ccc(C/C=C(\OCC)C(F)(F)F)cc2)c1 [compound 140] | 23 | 98 | – | –
CCOC(=O)c1cnn(Cc2ccc(COCC3(C(F)(F)F)OCCO3)cc2)c1 [compound 141] | 0 | 0 | – | –
CCO/C(=C\Oc1ccc(-c2noc(C(F)(F)F)n2)cc1)C(F)(F)F [compound 143] | 0 | 0 | – | –

Compound | Test B disease control rating ([1]; 10 ppm test suspension) [%] | Test A disease control rating ([2]; 10 ppm test suspension) [%] | Test B disease control rating ([1]; 50 ppm test suspension) [%] | Test A disease control rating ([2]; 50 ppm test suspension) [%]
CCO/C(=C\Oc1ccc(C#N)cc1)C(F)(F)F [compound 144] | 0 | 78 | – | –
CCOC(=O)c1cnn(Cc2ccc(O/C=C(\OCCO)C(F)(F)F)cc2)c1 [compound 145] | 0 | 82 | – | –
CCO/C(=C\Oc1ccc(C=O)cc1)C(F)(F)F [compound 148] | 0 | 0 | – | –
CCO/C(=C\Oc1ccc(CNS(=O)(=O)CC)cc1)C(F)(F)F [compound 149] | 0 | 0 | – | –
CCO/C(=C\Oc1ccc(CNC(=O)CC)cc1)C(F)(F)F [compound 150] | 0 | 33 | – | –
CCO/C(=C\Oc1ccc(Cn2cccn2)cc1)C(F)(F)F [compound 151] | 0 | 0 | – | –
CCO/C(=C\Oc1ccc(Cn2nc(C)cc2C)cc1)C(F)(F)F [compound 152] | 0 | 0 | – | –
CCOC(=O)c1cn(Cc2ccc(O/C=C(\OCC)C(F)(F)F)cc2)cn1 [compound 153] | 0 | 100 | – | –
CCO/C(=C\Oc1ccc(CC#N)cc1)C(F)(F)F [compound 154] | 0 | 0 | – | –
CCO/C(=C\Oc1ccc(CSC#N)cc1)C(F)(F)F [compound 155] | 0 | 0 | – | –
CCO/C(=C\Oc1ccc(Cn2ccnc2)cc1)C(F)(F)F [compound 156] | 0 | 0 | – | –
CCO/C(=C\Oc1ccc(Cn2cncn2)cc1)C(F)(F)F [compound 157] | 9 | 0 | – | –
CCOC(=COc1ccc(Cn2ccc(C)n2)cc1)C(F)(F)F [compound 158] | 0 | 0 | – | –
CCOC(=O)c1ccc2c(cnn2Cc2ccc(OCC3(C(F)(F)F)OCCO3)cc2)c1 [compound 160] | 0 | 13 | – | –
O=C(OCCCCl)c1cnn(Cc2ccc(OCC3(C(F)(F)F)OCCO3)cc2)c1 [compound 161] | 0 | 100 | – | –
N#CCNC(=O)c1cnn(Cc2ccc(OCC3(C(F)(F)F)OCCO3)cc2)c1 [compound 164] | 0 | 31 | – | –
CCOC(=O)c1cnn(Cc2ccc(OCC3(C(F)(F)F)OCCO3)nc2)c1 [compound 166] | 95 | 100 | – | –
CCOC(=O)c1cnn(Cc2ccc(CO/C=C(\OCC)C(F)(F)F)cc2)c1 [compound 167] | 0 | 38 | – | –
